Measured values published in US10344025B2, “GLS1 inhibitors for treating disease” (Board of Regents, The University of Texas System, priority 2014, dated 2019).
Read-outs that look alike come from different tables or passages of the source.

Experiments:
[1] = target: purified recombinant human GAC (GLS1) (Homo sapiens (Human), UniProt O94925); assay: GLS1 Enzymatic Activity Assay (dual-coupled enzymatic assay, resorufin/Amplex UltraRed readout); format: biochemical;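 further: glutamate from GAC coupled via glutamate oxidase and peroxidase to resorufin, read as fluorescence (ex 530, em 590 nm) kinetically or at 20 min, four-parameter logistic IC50 fit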
A549 cells = assay: Proliferation Assay (A549 viability, Cell Titer Fluor, 72 hours); format: cell-based
Outline: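 A549 cells seeded at 1000 cells/well, rested 24 h, then exposed to compound in 0.5% DMSO for 72 h at 37 °C. Viability read by Cell Titer Fluor fluorescence; IC50 from four-parameter logistic fit.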

purified recombinant human GAC (GLS1), sequence (O94925 other isoform, or with tags, fused parts or gaps): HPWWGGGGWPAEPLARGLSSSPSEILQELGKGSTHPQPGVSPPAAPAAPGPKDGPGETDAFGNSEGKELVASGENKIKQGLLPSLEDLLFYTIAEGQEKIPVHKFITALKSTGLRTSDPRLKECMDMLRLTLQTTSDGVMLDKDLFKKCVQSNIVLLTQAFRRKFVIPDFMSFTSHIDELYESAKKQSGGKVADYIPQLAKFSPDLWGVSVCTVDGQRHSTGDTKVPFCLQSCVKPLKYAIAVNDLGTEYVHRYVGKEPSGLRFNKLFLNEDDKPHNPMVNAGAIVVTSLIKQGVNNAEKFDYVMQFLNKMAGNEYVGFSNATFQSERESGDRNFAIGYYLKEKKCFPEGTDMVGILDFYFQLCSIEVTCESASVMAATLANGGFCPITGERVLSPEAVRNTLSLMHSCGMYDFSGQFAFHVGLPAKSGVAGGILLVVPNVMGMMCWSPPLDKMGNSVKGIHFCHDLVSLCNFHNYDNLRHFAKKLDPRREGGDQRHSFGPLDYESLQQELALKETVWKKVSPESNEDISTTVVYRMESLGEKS

SMILES	IC50 [1] [nM]	EC50 (A549 cells; Homo sapiens, A549, 72 h) [nM]	EC50 (A549 cells) [nM]
O=C(NCc1cccc(OC(F)(F)F)c1)c1cn(CCC(F)Cn2cc(C(=O)NCc3ccc(C(F)(F)F)cn3)nn2)nn1 (centres unmarked) [Example 431, 1-{2-fluoro-4-[4-({[3-(trifluoromethoxy)phenyl]methyl}carbamoyl)-1H-1,2,3-triazol-1-yl]butyl}-N-{[5-(trifluoromethyl)pyridin-2-yl]methyl}-1H-1,2,3-triazole-4-carboxamide]	< 100	< 100	–
O=C(NCc1cccc(OC(F)(F)F)c1)c1cn(CCCCc2nnc(C(=O)NCc3cc(C(F)(F)F)ccn3)s2)nn1 [Example 75, 5-{4-[4-({[3-(trifluoromethoxy)phenyl]methyl}carbamoyl)-1H-1,2,3-triazol-1-yl]butyl}-N-{[4-(trifluoromethyl)pyridin-2-yl]methyl}-1,3,4-thiadiazole-2-carboxamide]	< 100	< 100	–
COC(=O)Nc1ccc(CCCCn2cc(C(=O)NCc3cc(C(F)(F)F)ccn3)nn2)nn1 [Example 224, methyl (6-(4-(4-(((4-(trifluoromethyl)pyridin-2-yl)methyl)carbamoyl)-1H-1,2,3-triazol-1-yl)butyl)pyridazin-3-yl)carbamate]	100 to 500	100 to 500	–
O=C(NCc1cc(C(F)(F)F)ccn1)c1cn(CCCCn2cc(C(=O)N[C@H](CO)c3ccccc3)nn2)nn1 [Example 101, 1-[4-(4-{[(1S)-2-hydroxy-1-phenylethyl]carbamoyl}-1H-1,2,3-triazol-1-yl)butyl]-N-{[4-(trifluoromethyl)pyridin-2-yl]methyl}-1H-1,2,3-triazole-4-carboxamide]	500 to 5000	500 to 5000	–
O=C(Cc1ccccn1)Nc1nnc(CCC(F)Cn2cc(C(=O)NCc3cncc(C(F)(F)F)c3)nn2)s1 (centres unmarked) [Example 571, 1-(2-fluoro-4-(5-(2-(pyridin-2-yl)acetamido)-1,3,4-thiadiazol-2-yl)butyl)-N-((5-(trifluoromethyl)pyridin-3-yl)methyl)-1H-1,2,3-triazole-4-carboxamide]	< 100	< 100	–
CNC(=O)c1cn(CCCCc2ccc(NC(=O)CN3CCN(c4cccc(OC(F)(F)F)c4)CC3)nn2)nn1 [Example 228, N-methyl-1-(4-(6-(2-(4-(3-(trifluoromethoxy)phenyl)piperazin-1-yl)acetamido)pyridazin-3-yl)butyl)-1H-1,2,3-triazole-4-carboxamide]	< 100	< 100	–
O=C(Cc1cccc(OC(F)(F)F)c1)Nc1ccc(CCCCc2nnc(C(=O)NCc3ccccn3)s2)nn1 [Example 32, N-(pyridin-2-ylmethyl)-5-[4-(6-{2-[3-(trifluoromethoxy)phenyl]acetamido}pyridazin-3-yl)butyl]-1,3,4-thiadiazole-2-carboxamide]	< 100	< 100	–
CNC(=O)c1cn(CC(F)CCc2nnc(C(=O)NCc3cccc(N4CCCCC4)c3)s2)nn1 (centres unmarked) [Example 209, 5-(3-fluoro-4-(4-(methylcarbamoyl)-1H-1,2,3-triazol-1-yl)butyl)-N-(3-(piperidin-1-yl)benzyl)-1,3,4-thiadiazole-2-carboxamide]	100 to 500	100 to 500	–
O=C(NCC1CCCC1)c1cn(CCC(F)Cn2cc(C(=O)NCc3cc(C(F)(F)F)ccn3)nn2)nn1 (centres unmarked) [Example 471, 1-(4-{4-[(cyclopentylmethyl)carbamoyl]-1H-1,2,3-triazol-1-yl}-2-fluorobutyl)-N-{[4-(trifluoromethyl)pyridin-2-yl]methyl}-1H-1,2,3-triazole-4-carboxamide]	< 100	100 to 500	–
O=C(CC1CCCC1)Nc1cn(CCCCn2cc(C(=O)NCc3cccc(OC(F)(F)F)c3)nn2)nn1 [Example 295, 1-{4-[4-(2-cyclopentylacetamido)-1H-1,2,3-triazol-1-yl]butyl}-N-{[3-(trifluoromethoxy)phenyl]methyl}-1H-1,2,3-triazole-4-carboxamide]	< 100	< 100	–
O=C(Cc1cc(OC(F)(F)F)ccc1F)Nc1cn(CCC(F)Cn2cc(C(=O)NCc3ncccc3F)nn2)nn1 (centres unmarked) [Example 417, 1-[2-fluoro-4-(4-{2-[2-fluoro-5-(trifluoromethoxy)phenyl]acetamido}-1H-1,2,3-triazol-1-yl)butyl]-N-[(3-fluoropyridin-2-yl)methyl]-1H-1,2,3-triazole-4-carboxamide]	< 100	< 100	–
CNC(=O)c1cn(C[C@@H](F)CCc2nnc(NC(=O)Cc3cccc(OC(F)(F)F)c3)s2)nn1 [Example 194, (S)-1-(2-fluoro-4-(5-(2-(3-(trifluoromethoxy)phenyl)acetamido)-1,3,4-thiadiazol-2-yl)butyl)-N-methyl-1H-1,2,3-triazole-4-carboxamide]	< 100	–	< 100
CNC(=O)c1cn(CCCCc2ccc(NC(=O)Cc3cc(-c4ccccc4OC(F)(F)F)ccn3)nn2)nn1 [Example 207, N-methyl-1-(4-(6-(2-(4-(2-(trifluoromethoxy)phenyl)pyridin-2-yl)acetamido)pyridazin-3-yl)butyl)-1H-1,2,3-triazole-4-carboxamide]	< 100	< 100	–
COCCNC(=O)c1nnc(CCCCc2ccc(NC(=O)Cc3cccc(OC(F)(F)F)c3)nn2)s1 [Example 6, N-(2-methoxyethyl)-5-(4-(6-(2-(3-(trifluoromethoxy)phenyl)acetamido)pyridazin-3-yl)butyl)-1,3,4-thiadiazole-2-carboxamide]	< 100	< 100	–
Cc1ccc(CC(=O)Nc2cn(CCCCn3cc(C(=O)NCc4cccc(OC(F)(F)F)c4)nn3)nn2)cn1 [Example 313, 1-(4-{4-[2-(6-methylpyridin-3-yl)acetamido]-1H-1,2,3-triazol-1-yl}butyl)-N-{[3-(trifluoromethoxy)phenyl]methyl}-1H-1,2,3-triazole-4-carboxamide]	< 100	< 100	–
O=C(NCc1cncc(C(F)(F)F)c1)c1cn(CCCCn2cc(C(=O)NCC3CCCC3)nn2)nn1 [Example 84]	100 to 500	100 to 500	–
Cc1ccc(CNC(=O)c2cn(CCCCc3nnc(C(=O)NCc4cccc(OC(F)(F)F)c4)s3)nn2)cn1 [Example 61]	< 100	< 100	–
O=C(CC1CCCCC1)Nc1cn(CCCCn2cc(C(=O)NCc3ccccn3)nn2)nn1 [Example 280, 1-{4-[4-(2-cyclohexylacetamido)-1H-1,2,3-triazol-1-yl]butyl}-N-(pyridin-2-ylmethyl)-1H-1,2,3-triazole-4-carboxamide]	100 to 500	500 to 5000	–
O=C(Cc1cccc(OC(F)(F)F)c1)Nc1nnc(CCC(F)Cn2cc(C(=O)NCc3cncc(C(F)(F)F)c3)nn2)s1 (centres unmarked) [Example 496, 1-[2-fluoro-4-(5-{2-[3-(trifluoromethoxy)phenyl]acetamido}-1,3,4-thiadiazol-2-yl)butyl]-N-{[5-(trifluoromethyl)pyridin-3-yl]methyl}-1H-1,2,3-triazole-4-carboxamide]	< 100	< 100	–
CNC(=O)c1nnc(CCCCc2ccc(NC(=O)Cc3cccc(OC(F)(F)F)c3)nn2)s1 [Example 572, N-methyl-5-(4-(6-(2-(3-(trifluoromethoxy)phenyl)acetamido)pyridazin-3-yl)butyl)-1,3,4-thiadiazole-2-carboxamide]	< 100	100 to 500	–
O=C(NCc1cccc(OC(F)(F)F)c1)c1cn(CCCCn2cc(C(=O)NCC3CCCCO3)nn2)nn1 (centres unmarked) [Example 118, N-(oxan-2-ylmethyl)-1-{4-[4-({[3-(trifluoromethoxy)phenyl]methyl}carbamoyl)-1H-1,2,3-triazol-1-yl]butyl}-1H-1,2,3-triazole-4-carboxamide]	100 to 500	100 to 500	–
O=C(Cc1cccc(F)n1)Nc1nnc(CCC(F)Cn2cc(C(=O)NCc3cc(OC(F)(F)F)ccc3F)nn2)s1 (centres unmarked) [Example 592, 1-(2-fluoro-4-(5-(2-(6-fluoropyridin-2-yl)acetamido)-1,3,4-thiadiazol-2-yl)butyl)-N-(2-fluoro-5-(trifluoromethoxy)benzyl)-1H-1,2,3-triazole-4-carboxamide]	< 100	< 100	–
Cc1ccc(CNC(=O)c2cn(CCCCc3nnc(C(=O)NCc4ccc(C)nc4)s3)nn2)cn1 [Example 64, N-[(6-methylpyridin-3-yl)methyl]-5-[4-(4-{[(6-methylpyridin-3-yl)methyl]carbamoyl}-1H-1,2,3-triazol-1-yl)butyl]-1,3,4-thiadiazole-2-carboxamide]	< 100	500 to 5000	–
O=C(Cc1cc(OC(F)(F)F)ccc1F)Nc1cn(CCC(F)Cn2cc(C(=O)NCc3ccccn3)nn2)nn1 (centres unmarked) [Example 398, 1-[2-fluoro-4-(4-{2-[2-fluoro-5-(trifluoromethoxy)phenyl]acetamido}-1H-1,2,3-triazol-1-yl)butyl]-N-(pyridin-2-ylmethyl)-1H-1,2,3-triazole-4-carboxamide]	< 100	< 100	–
O=C(Cc1ccccn1)Nc1cn(CCCCn2cc(C(=O)NCc3cccc(OC(F)(F)F)c3)nn2)nn1 [Example 293, 1-(4-{4-[2-(pyridin-2-yl)acetamido]-1H-1,2,3-triazol-1-yl}butyl)-N-{[3-(trifluoromethoxy)phenyl]methyl}-1H-1,2,3-triazole-4-carboxamide]	< 100	100 to 500	–
CNC(=O)c1cn(CCCCc2ccc(NC(=O)Cc3cn(-c4cccc(OC(F)(F)F)c4)cn3)nn2)nn1 [Example 604, N-methyl-1-(4-(6-(2-(1-(3-(trifluoromethoxy)phenyl)-1H-imidazol-4-yl)acetamido)pyridazin-3-yl)butyl)-1H-1,2,3-triazole-4-carboxamide]	< 100	< 100	–
CNC(=O)c1nnc(CCCCc2ccc(NC(=O)Cc3cncc(-c4cccc(OC(F)(F)F)c4)c3)nn2)s1 [Example 216, N-methyl-5-(4-(6-(2-(5-(3-(trifluoromethoxy)phenyl)pyridin-3-yl)acetamido)pyridazin-3-yl)butyl)-1,3,4-thiadiazole-2-carboxamide]	< 100	< 100	–
CNC(=O)c1cn(CCCCc2ccc(NC(=O)CC3CCCC3)nn2)nn1 [Example 548, 1-{4-[6-(2-cyclopentylacetamido)pyridazin-3-yl]butyl}-N-methyl-1H-1,2,3-triazole-4-carboxamide]	100 to 500	500 to 5000	–
